From the NIST ThermoML archive (doi:10.1016/j.jct.2017.12.011)
Values joined by “and” are separate entries in the source; they are usually repeats but may differ in a detail not shown here. Equal entries are not always repeated. ± gives the expanded uncertainty stated by the source.

Settings: Pendant drop shape

- surface tension liquid-gas (271.2 K): 76.43 ± 1.8 mN/m and 76.39 ± 1.9 mN/m
- surface tension liquid-gas (274.2 K): 75.74 ± 1.8 mN/m and 75.89 ± 1.5 mN/m
- surface tension liquid-gas (276.2 K): 75.11 ± 1.5 mN/m and 75.34 ± 1.9 mN/m
- surface tension liquid-gas (278.2 K): 74.61 ± 2 mN/m and 74.98 ± 1.9 mN/m
- surface tension liquid-gas (280.2 K): 74.5 ± 1.4 mN/m and 74.21 ± 1.3 mN/m
Compound: O [water]
